# Experimental data as given in US20250346597A1, “CONDENSED HETEROCYCLIC COMPOUNDS AS INHIBITOR OF DIACYLGLYCEROL KINASES” (BEONE MEDICINES I GMBH, priority 2023, published 2025).
# Experiments:
# [1] = biological target: DGKζ (Homo sapiens (Human), UniProt Q13574); assay: Biochemical DGK IC50 assay (ADP-Glo, lipid micelle substrate), DGKζ; settings: full length DGKζ 0.5 nM, ATP 140 μM, DAG 80 μM
# Experimental: (§1) Enzymatic reactions of DGKζ, DGKα and DGKδ were performed using ADP-Glo assay with lipid micelle substrate. […] Full length DGKα (D21-10BG, SignalChem) and full length DGKδ (D23-10G, SignalChem) were purchased. Lipid micelle was prepared by dissolving DAG (Sigma, 317505-10MG) and PS (Sigma, P7769-100MG) with chloroform which was furtherly removed by rotary evaporation. The resulted product was resuspended in buffer containing 25 mM HEPES pH 7.0, 0.5 mM EDTA and 160 mM Octyl P-D glucopyranoside by vigorous mixing and ultrasonic (IID, Scientz).
# (§2) The inhibition activities testing for the compound disclosed herein were carried out at room temperature in assay buffer containing 50 mM HEPES, 10 mM MgCl2, 0.01% BSA, 0.1 mM Na3VO4, 0.005% Tween-20 and 0.01 mM CaCl2. Compounds in DMSO were dispensed into wells of a black 384 well plate (Corning 4514) using D300e digital dispenser (Tecan). […] 3 μL 2× enzyme solution was added to wells. […] After 1 hour reaction, 5 μL ADP-Glo reagent (Promga V9101) was added and incubated for 40 minutes. 10 μL Kinase Detection reagent was added and incubated for 30 minutes. Luminescence was measured on a microplate reader (PHERAstar FSX, BMG labtech). The IC50s are calculated based on inhibition of enzyme activity in the presence of increasing concentrations of compounds.
# Human His-TEV-DGK-zeta-pFastBac1 and human baculovirus samples was generated using the Bac-to-Bac baculovirus expression system (Invitrogen) according to the manufacturer's protocol. The DNA used for expression of DGK-zeta, have SEQ ID Nos: 1. Baculovirus amplification was achieved using infected SF9 cells at 1:2000 virus/cells ratios, and grown for 96 hours at 27° C. post-transfected.
# The expression scaled up for each protein was carried out in the […] from CORNING. 4 L of 3×10^6 cells/mL Sf9 cells (Expression System, Invitrogen) grown in SF900™ II SFM insect medium (Expression System) was infected with virus stock at 1:200 virus/cells ratio, and grown for 48 hours at 27° C. post-transfection. The infected cell culture was harvested by centrifugation at 6000 rpm for 15 min 4° C. in a SORVALL LYNX6000 centrifuge. The cell pellets were stored at −80° C.
# Full length human DGKζ produced as described above, was purified from Sf9 baculovirus-infected insect cell paste. The cells were lysed using sonication method, and the lysates were clarified by centrifugation.
# [2] = biological target: DGKα (Homo sapiens (Human), UniProt P23743); assay: Biochemical DGK IC50 assay (ADP-Glo, lipid micelle substrate), DGKα; settings: full length DGKα […], ATP 140 μM, DAG 80 μM; also: full length DGKα 7.5 nM
# DGKα, sequence (P23743 whole entry): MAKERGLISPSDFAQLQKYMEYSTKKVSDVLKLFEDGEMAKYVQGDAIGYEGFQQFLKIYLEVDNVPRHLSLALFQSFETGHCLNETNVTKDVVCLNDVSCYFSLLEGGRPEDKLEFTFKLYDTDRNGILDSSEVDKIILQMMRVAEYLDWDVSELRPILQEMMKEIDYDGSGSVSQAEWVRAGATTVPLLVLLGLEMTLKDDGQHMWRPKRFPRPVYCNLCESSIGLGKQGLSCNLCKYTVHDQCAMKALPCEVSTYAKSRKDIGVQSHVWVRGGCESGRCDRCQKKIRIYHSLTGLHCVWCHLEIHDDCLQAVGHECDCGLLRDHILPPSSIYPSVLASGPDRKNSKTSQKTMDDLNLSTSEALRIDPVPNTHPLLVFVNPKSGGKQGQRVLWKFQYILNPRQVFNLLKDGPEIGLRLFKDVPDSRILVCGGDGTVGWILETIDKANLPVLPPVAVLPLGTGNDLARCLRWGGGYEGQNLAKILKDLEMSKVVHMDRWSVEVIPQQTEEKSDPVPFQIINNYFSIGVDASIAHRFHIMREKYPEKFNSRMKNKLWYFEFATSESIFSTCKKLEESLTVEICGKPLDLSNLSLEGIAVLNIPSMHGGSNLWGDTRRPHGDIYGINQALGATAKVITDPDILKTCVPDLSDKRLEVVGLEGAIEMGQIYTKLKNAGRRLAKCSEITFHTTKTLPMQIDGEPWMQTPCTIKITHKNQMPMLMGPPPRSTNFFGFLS
# Experimental: as §1, §2
# DGKζ, sequence (Q13574 other isoform, or with tags, fused parts or gaps): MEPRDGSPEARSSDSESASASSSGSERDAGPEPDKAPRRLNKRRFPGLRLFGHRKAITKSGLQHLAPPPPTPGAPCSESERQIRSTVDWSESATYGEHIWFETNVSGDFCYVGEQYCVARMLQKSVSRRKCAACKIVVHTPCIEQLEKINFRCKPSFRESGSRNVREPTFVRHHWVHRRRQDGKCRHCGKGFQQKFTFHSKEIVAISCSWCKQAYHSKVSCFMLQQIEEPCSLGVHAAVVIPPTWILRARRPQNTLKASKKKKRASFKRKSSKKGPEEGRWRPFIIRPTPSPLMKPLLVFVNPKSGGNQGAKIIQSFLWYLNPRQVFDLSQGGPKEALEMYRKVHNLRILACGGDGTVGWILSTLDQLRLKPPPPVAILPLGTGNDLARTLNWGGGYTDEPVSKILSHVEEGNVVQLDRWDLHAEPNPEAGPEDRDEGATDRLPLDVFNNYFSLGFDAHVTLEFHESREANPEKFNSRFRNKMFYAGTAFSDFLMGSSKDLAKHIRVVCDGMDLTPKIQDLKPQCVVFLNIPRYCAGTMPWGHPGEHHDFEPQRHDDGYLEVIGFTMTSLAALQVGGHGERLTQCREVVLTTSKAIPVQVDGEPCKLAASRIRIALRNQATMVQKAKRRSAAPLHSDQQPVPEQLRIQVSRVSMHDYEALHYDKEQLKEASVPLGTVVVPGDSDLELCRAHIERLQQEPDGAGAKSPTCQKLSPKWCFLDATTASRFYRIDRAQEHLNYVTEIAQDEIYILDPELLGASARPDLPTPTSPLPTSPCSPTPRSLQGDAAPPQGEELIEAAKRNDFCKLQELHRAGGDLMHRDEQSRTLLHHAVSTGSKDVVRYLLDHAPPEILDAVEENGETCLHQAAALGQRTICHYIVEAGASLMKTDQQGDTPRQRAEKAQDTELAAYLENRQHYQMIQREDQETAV
IC50 [1] [µM],IC50 [2] [µM],Compound
1.44,0.023,"CC[C@H]1CN(C(C)c2ccc(C(=O)N3CC(OC)C3)cc2)[C@H](CC)CN1c1cc(=O)n(C)c2cn(CC#N)nc12 (single isomer, unassigned) [Compound A1a]"
> 10,0.734,"CC[C@H]1CN(C(C)c2ccc(C(=O)N3CC(OC)C3)cc2)[C@H](CC)CN1c1cc(=O)n(C)c2cn(CC#N)nc12 (single isomer, unassigned) [Compound A1b]"
0.227,13.6,"CC[C@H]1CN(C(C)c2cc(F)c(C(=O)N(C)C)c(F)c2)[C@H](CC)CN1c1cc(=O)n(C)c2cn(CC#N)nc12 (single isomer, unassigned) [Compound A3a]"
0.551,5.9,"CC[C@H]1CN(C(C)c2cc(F)c(C(=O)N(C)C)c(F)c2)[C@H](CC)CN1c1cc(=O)n(C)c2cn(CC#N)nc12 (single isomer, unassigned) [Compound A3b]"
0.569,2.69,"CC[C@H]1CN(C(C)c2ccc(C(=O)N(C)C)c(F)c2)[C@H](CC)CN1c1cc(=O)n(C)c2cn(CC#N)nc12 (single isomer, unassigned) [Compound A4a]"
3.17,4.84,"CC[C@H]1CN(C(C)c2ccc(C(=O)N(C)C)c(F)c2)[C@H](CC)CN1c1cc(=O)n(C)c2cn(CC#N)nc12 (single isomer, unassigned) [Compound A4b]"
0.138,0.026,"CC[C@H]1CN(C(C)c2ccc(OC(C)C)cn2)[C@H](CC)CN1c1cc(=O)n(C)c2cn(CC#N)nc12 (single isomer, unassigned) [Compound A5la]"
0.13,0.022,"CC[C@H]1CN(C(C)c2ccc(OC(F)F)cc2)[C@H](CC)CN1c1cc(=O)n(C)c2cn(CC#N)nc12 (single isomer, unassigned) [Compound A19a]"
4.9,0.289,"CC[C@H]1CN(C(C)c2ccc(OC(F)F)cc2)[C@H](CC)CN1c1cc(=O)n(C)c2cn(CC#N)nc12 (single isomer, unassigned) [Compound A19b]"
1.47,2.89,"CC[C@H]1CN(C(C)c2ccc(OC3COC3)c(C)c2)[C@H](CC)CN1c1cc(=O)n(C)c2cn(CC#N)nc12 (single isomer, unassigned) [Compound A21a]"
> 10,> 150,"CC[C@H]1CN(C(C)c2ccc(OC3COC3)c(C)c2)[C@H](CC)CN1c1cc(=O)n(C)c2cn(CC#N)nc12 (single isomer, unassigned) [Compound A21b]"
3.74,2.35,"CC[C@H]1CN(C(C)c2ccc(OC3COC3)c(F)c2)[C@H](CC)CN1c1cc(=O)n(C)c2cn(CC#N)nc12 (single isomer, unassigned) [Compound A23a]"
0.534,0.138,"CC[C@H]1CN(C(C)c2ccc(OC3COC3)c(F)c2)[C@H](CC)CN1c1cc(=O)n(C)c2cn(CC#N)nc12 (single isomer, unassigned) [Compound A23b]"
0.246,3.38,"CC[C@H]1CN(C(C)c2cc(F)c(CN(C)C)c(F)c2)[C@H](CC)CN1c1cc(=O)n(C)c2cn(CC#N)nc12 (single isomer, unassigned) [Compound A25a]"
2.2,6.02,"CC[C@H]1CN(C(C)c2cc(F)c(CN(C)C)c(F)c2)[C@H](CC)CN1c1cc(=O)n(C)c2cn(CC#N)nc12 (single isomer, unassigned) [Compound A25b]"
4.09,1.44,"CC[C@H]1CN(C(C)c2ccc(CN3CCCC3)cc2)[C@H](CC)CN1c1cc(=O)n(C)c2cn(CC#N)nc12 (single isomer, unassigned) [Compound A26a]"
> 10,24.7,"CC[C@H]1CN(C(C)c2ccc(CN3CCCC3)cc2)[C@H](CC)CN1c1cc(=O)n(C)c2cn(CC#N)nc12 (single isomer, unassigned) [Compound A26b]"
0.075,0.037,"CC[C@H]1CN(C(C)c2ccc(OC)cc2)[C@H](CC)CN1c1cc(=O)n(C)c2cn(CC#N)nc12 (single isomer, unassigned) [Compound A34a]"
2.94,0.596,"CC[C@H]1CN(C(C)c2ccc(OC)cc2)[C@H](CC)CN1c1cc(=O)n(C)c2cn(CC#N)nc12 (single isomer, unassigned) [Compound A34b]"

IC50 [1] [µM],IC50 [2] [µM],Compound
0.234,0.131,"CC[C@H]1CN(C(C)c2nc(C)c(C)s2)[C@H](CC)CN1c1cc(=O)n(C)c2cn(CC#N)nc12 (single isomer, unassigned) [Compound A35a]"
2.42,> 150,"CC[C@H]1CN(C(C)c2nc(C)c(C)s2)[C@H](CC)CN1c1cc(=O)n(C)c2cn(CC#N)nc12 (single isomer, unassigned) [Compound A35b]"
0.057,0.164,"CC[C@H]1CN(C(C)c2nc3c(s2)CCCC3)[C@H](CC)CN1c1cc(=O)n(C)c2cn(CC#N)nc12 (single isomer, unassigned) [Compound A36a]"
0.946,2.11,"CC[C@H]1CN(C(C)c2nc3c(s2)CCCC3)[C@H](CC)CN1c1cc(=O)n(C)c2cn(CC#N)nc12 (single isomer, unassigned) [Compound A36b]"
0.126,0.81,"CC[C@H]1CN(C(C)c2ccc(C3CC3)nc2)[C@H](CC)CN1c1cc(=O)n(C)c2cn(CC#N)nc12 (single isomer, unassigned) [Compound A38a]"
1.18,2.35,"CC[C@H]1CN(C(C)c2ccc(C3CC3)nc2)[C@H](CC)CN1c1cc(=O)n(C)c2cn(CC#N)nc12 (single isomer, unassigned) [Compound A38b]"
0.464,0.033,"CC#CCn1cc2c(n1)c(N1C[C@@H](CC)N(C(C)c3ccc(C4CC4)nc3)C[C@@H]1CC)cc(=O)n2C (single isomer, unassigned) [Compound A39a]"
2.36,0.237,"CC#CCn1cc2c(n1)c(N1C[C@@H](CC)N(C(C)c3ccc(C4CC4)nc3)C[C@@H]1CC)cc(=O)n2C (single isomer, unassigned) [Compound A39b]"
0.315,1.96,"CC[C@H]1CN(C(C)c2ccc(COC)nc2)[C@H](CC)CN1c1cc(=O)n(C)c2cn(CC#N)nc12 (single isomer, unassigned) [Compound A42a]"
5.06,6.64,"CC[C@H]1CN(C(C)c2ccc(COC)nc2)[C@H](CC)CN1c1cc(=O)n(C)c2cn(CC#N)nc12 (single isomer, unassigned) [Compound A42b]"
0.03,0.202,"CC[C@H]1CN(C(C)c2ccc(C3CC3)nc2F)[C@H](CC)CN1c1cc(=O)n(C)c2cn(CC#N)nc12 (single isomer, unassigned) [Compound A45a]"
0.865,0.728,"CC[C@H]1CN(C(C)c2ccc(C3CC3)nc2F)[C@H](CC)CN1c1cc(=O)n(C)c2cn(CC#N)nc12 (single isomer, unassigned) [Compound A45b]"
0.0064,0.406,"CC[C@H]1CN(C(C)c2ccc(C(C)(C)F)nc2)[C@H](CC)CN1c1cc(=O)n(C)c2cn(CC#N)nc12 (single isomer, unassigned) [Compound A46a]"
0.396,0.913,"CC[C@H]1CN(C(C)c2ccc(C(C)(C)F)nc2)[C@H](CC)CN1c1cc(=O)n(C)c2cn(CC#N)nc12 (single isomer, unassigned) [Compound A46b]"
0.088,1.19,"CC[C@H]1CN(C(C)c2cnc(C3CC3)cc2F)[C@H](CC)CN1c1cc(=O)n(C)c2cn(CC#N)nc12 (single isomer, unassigned) [Compound A47a]"
1.12,3.52,"CC[C@H]1CN(C(C)c2cnc(C3CC3)cc2F)[C@H](CC)CN1c1cc(=O)n(C)c2cn(CC#N)nc12 (single isomer, unassigned) [Compound A47b]"
0.059,0.24,"CC[C@H]1CN(C(C)c2ccc(C3CC3)nc2)[C@H](CC)CN1c1c(F)c(=O)n(C)c2cn(CC#N)nc12 (single isomer, unassigned) [Compound A48a]"
,11.9,"CC[C@H]1CN(C(C)c2ccc(N)nc2)[C@H](CC)CN1c1cc(=O)n(C)c2cn(CC#N)nc12 (single isomer, unassigned) [Compound A187b]"
